pIC50: −log10 of the molar value.
Test system: 966289-007-R4-J1-PDC complex spheroid viability
Assay: Anticancer human tumor 966289-007-R4-J1-PDC patient-derived pancreatic adenocarcinoma cell line growth inhibition [RAS]
Conditions: for pIC50: curve of first compound; for viability, T/C: stronger effect = lower value
Procedure, shortened: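 Tumour cells grown as complex spheroids with HUVEC endothelial cells and mesenchymal stem cells, treated with RAS pathway inhibitor combinations. Each agent spans half-log steps from near clinical Cmax, or 10 microM where Cmax is unknown.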
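Also: spheroids exposed to agents for one week before readout.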
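For viability, T/C in this document: percent viability relative to DMSO vehicle control wells as 100%.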

Work on `CCc1c2c(nc3ccc(O)cc13)-c1cc3c(c(=O)n1C2)COC(=O)[C@]3(O)CC` + C#Cc1c(F)ccc2cc(O)cc(-c3ncc4c(N5CC6CCC(C5)N6)nc(OCC56CCCN5CC(F)C6)nc4c3F)c12 yielded a pIC50 (second compound 0.0316 µM) of 8.80, a pIC50 (second compound 0.1 µM) of 8.82 and a pIC50 (second compound 0.316 µM) of 8.84. It also gave a pIC50 (second compound 1 µM) of 8.84, a pIC50 (second compound 3.16 µM) of 8.82 and a pIC50 (second compound 10 µM) of 8.85. For the same compound, the viability, T/C (second compound 0.0316 µM, first compound 0.000949 µM) was 88.6%, the viability, T/C (second compound 0.0316 µM, first compound 0.003 µM) was 2.5% and the viability, T/C (second compound 0.0316 µM, first compound 0.00949 µM) was 1.27%. For the same compound, the viability, T/C (second compound 0.0316 µM, first compound 0.03 µM) was 0.94%, the viability, T/C (second compound 0.0316 µM, first compound 0.0949 µM) was 1.06% and the viability, T/C (second compound 0.0316 µM, first compound 0.3 µM) was 1.14%. It also gave a viability, T/C (second compound 0.1 µM, first compound 0.000949 µM) of 81.8%, a viability, T/C (second compound 0.1 µM, first compound 0.003 µM) of 2.09% and a viability, T/C (second compound 0.1 µM, first compound 0.00949 µM) of 0.95%. It also gave a viability, T/C (second compound 0.1 µM, first compound 0.03 µM) of 1.18%, a viability, T/C (second compound 0.1 µM, first compound 0.0949 µM) of 0.87% and a viability, T/C (second compound 0.1 µM, first compound 0.3 µM) of 1.15%. It also gave a viability, T/C (second compound 0.316 µM, first compound 0.000949 µM) of 76.5%, a viability, T/C (second compound 0.316 µM, first compound 0.003 µM) of 2.19% and a viability, T/C (second compound 0.316 µM, first compound 0.00949 µM) of 1.22%. For the same compound, the viability, T/C (second compound 0.316 µM, first compound 0.03 µM) was 1.04%, the viability, T/C (second compound 0.316 µM, first compound 0.0949 µM) was 0.89% and the viability, T/C (second compound 0.316 µM, first compound 0.3 µM) was 1.23%. It also gave a viability, T/C (second compound 1 µM, first compound 0.000949 µM) of 77.1%, a viability, T/C (second compound 1 µM, first compound 0.003 µM) of 1.99% and a viability, T/C (second compound 1 µM, first compound 0.00949 µM) of 1.31%. For the same compound, the viability, T/C (second compound 1 µM, first compound 0.03 µM) was 1.22%, the viability, T/C (second compound 1 µM, first compound 0.0949 µM) was 1.16% and the viability, T/C (second compound 1 µM, first compound 0.3 µM) was 1.16%. The viability, T/C (second compound 3.16 µM, first compound 0.000949 µM) was 82.2%, the viability, T/C (second compound 3.16 µM, first compound 0.003 µM) was 2.82% and the viability, T/C (second compound 3.16 µM, first compound 0.00949 µM) was 1.66%. It also gave a viability, T/C (second compound 3.16 µM, first compound 0.03 µM) of 1.34%, a viability, T/C (second compound 3.16 µM, first compound 0.0949 µM) of 1.54% and a viability, T/C (second compound 3.16 µM, first compound 0.3 µM) of 1.55%. It also gave a viability, T/C (second compound 10 µM, first compound 0.000949 µM) of 75.1%, a viability, T/C (second compound 10 µM, first compound 0.003 µM) of 1.37% and a viability, T/C (second compound 10 µM, first compound 0.00949 µM) of 1.04%. It also gave a viability, T/C (second compound 10 µM, first compound 0.03 µM) of 0.91%, a viability, T/C (second compound 10 µM, first compound 0.0949 µM) of 0.84% and a viability, T/C (second compound 10 µM, first compound 0.3 µM) of 0.55%.

Compound `C=CC(=O)Nc1cc(Nc2nccc(-c3cn(C)c4ccccc34)n2)c(OC)cc1N(C)CCN(C)C` + C=CC(=O)N1CCN(c2nc(OCC3CCCN3C)nc3c(F)c(-c4nc(N)cc(C)c4C(F)(F)F)c(Cl)cc23)C(C)C1 has a pIC50 (second compound 0.00316 µM) of under 6.00, a pIC50 (second compound 0.01 µM) of under 6.00 and a pIC50 (second compound 0.0316 µM) of under 6.00. The pIC50 (second compound 0.1 µM) was under 6.00, the pIC50 (second compound 0.316 µM) was under 6.00 and the pIC50 (second compound 1 µM) was under 6.00. The viability, T/C (second compound 0.00316 µM, first compound 0.00316 µM) was 102%, the viability, T/C (second compound 0.00316 µM, first compound 0.01 µM) was 105% and the viability, T/C (second compound 0.00316 µM, first compound 0.0316 µM) was 101%. The viability, T/C (second compound 0.00316 µM, first compound 0.1 µM) was 104%, the viability, T/C (second compound 0.00316 µM, first compound 0.316 µM) was 104% and the viability, T/C (second compound 0.00316 µM, first compound 1 µM) was 71.7%. The viability, T/C (second compound 0.01 µM, first compound 0.00316 µM) was 95.6%, the viability, T/C (second compound 0.01 µM, first compound 0.01 µM) was 100% and the viability, T/C (second compound 0.01 µM, first compound 0.0316 µM) was 85.5%. It also gave a viability, T/C (second compound 0.01 µM, first compound 0.1 µM) of 97.7%, a viability, T/C (second compound 0.01 µM, first compound 0.316 µM) of 97.9% and a viability, T/C (second compound 0.01 µM, first compound 1 µM) of 71.8%. For the same compound, the viability, T/C (second compound 0.0316 µM, first compound 0.00316 µM) was 105%, the viability, T/C (second compound 0.0316 µM, first compound 0.01 µM) was 102% and the viability, T/C (second compound 0.0316 µM, first compound 0.0316 µM) was 97.9%. It also gave a viability, T/C (second compound 0.0316 µM, first compound 0.1 µM) of 98.7%, a viability, T/C (second compound 0.0316 µM, first compound 0.316 µM) of 97.3% and a viability, T/C (second compound 0.0316 µM, first compound 1 µM) of 78.8%. The viability, T/C (second compound 0.1 µM, first compound 0.00316 µM) was 117%, the viability, T/C (second compound 0.1 µM, first compound 0.01 µM) was 103% and the viability, T/C (second compound 0.1 µM, first compound 0.0316 µM) was 101%. It also gave a viability, T/C (second compound 0.1 µM, first compound 0.1 µM) of 97.4%, a viability, T/C (second compound 0.1 µM, first compound 0.316 µM) of 85.4% and a viability, T/C (second compound 0.1 µM, first compound 1 µM) of 83.9%. It also gave a viability, T/C (second compound 0.316 µM, first compound 0.00316 µM) of 104%, a viability, T/C (second compound 0.316 µM, first compound 0.01 µM) of 112% and a viability, T/C (second compound 0.316 µM, first compound 0.0316 µM) of 118%. It also gave a viability, T/C (second compound 0.316 µM, first compound 0.1 µM) of 98.5%, a viability, T/C (second compound 0.316 µM, first compound 0.316 µM) of 84.6% and a viability, T/C (second compound 0.316 µM, first compound 1 µM) of 78.9%. For the same compound, the viability, T/C (second compound 1 µM, first compound 0.00316 µM) was 102%, the viability, T/C (second compound 1 µM, first compound 0.01 µM) was 95.5% and the viability, T/C (second compound 1 µM, first compound 0.0316 µM) was 95.3%. The viability, T/C (second compound 1 µM, first compound 0.1 µM) was 100%, the viability, T/C (second compound 1 µM, first compound 0.316 µM) was 96% and the viability, T/C (second compound 1 µM, first compound 1 µM) was 67.6%.
